The values that follow come from PubChem BioAssay AID2305 (GlaxoSmithKline (GSK), 2010).

The term IC50 denotes the point on the concentration scale where inhibition reaches its midpoint.

This assay relates to P. falciparum 3D7 growth, pLDH absorbance. In words: blood-stage malaria parasite growth potency – strain 3D7, dose response (AID 2305).
The compound `COc1ccc2[nH]cc(C3=CCN(Cc4ccccc4)CC3)c2c1` gave an IC50 of 570 nM.

In turn, `CCCCN(CCCC)C(=Nc1cccc(Cl)c1Cl)Nc1ccc(C#N)cc1O` came in with an IC50 of 850 nM.

`CN(C)S(=O)(=O)c1ccc(N2C(=O)[C@@H]3[C@H](C2=O)[C@@]2(c4ccccc4)C(=O)[C@]3(c3ccccc3)C(c3ccccc3)=C2c2ccccc2)cc1` returned an IC50 of 950 nM.

For `CCn1ccc2c(N3CCCC3=O)cc(C(=O)N[C@@H](Cc3ccccc3)[C@H](O)CNCc3cccc(OC)c3)cc21`, the IC50 is 590 nM.

The compound `CC1(C)[C@H]2C=C(CN3CCC(NC(=O)Nc4ccc(Cl)c(Cl)c4)CC3)[C@@H]1CC2` showed a half-maximal inhibitory concentration (IC50) of 760 nM.

The compound `O=c1[nH]c(=O)n2c(nc3ccccc32)[nH]1` gave an IC50 of 170 nM.

For the compound `O=C(Nc1ccc(OC2CCN(Cc3ccsc3)C2)c(Cl)c1)c1ccsc1` (stereo not given), the IC50 worked out at 1020 nM.

In the case of `CC(C)(C)OC(=O)NCC(=O)N(Cc1ccccc1)Cc1ccccc1`, the IC50 was determined as 120 nM.

`Cc1cc(C(F)(F)F)cc(-n2ncc(-c3ccc(C(=O)NCCNCc4ccccc4)cc3)c2N)n1` registered an IC50 of 1070 nM.

Take `COc1ccc2nccc([C@@H](O)CN3CCC(NCc4cc5cccnc5[nH]4)CC3)c2n1`: the IC50 amounted to 960 nM.

In the case of `CCOc1cc(C)ccc1C1CCN(CCCCNC(=O)c2cnc(-c3ccc(C(F)(F)F)cc3)[nH]2)CC1`, the IC50 was determined as 770 nM.

`O=C(N[C@@H](CC1CCCCC1)C(=O)NCCN1CCCC1)c1ccc(O)c(-c2cccc(C(F)(F)F)c2)c1` returned an IC50 of 760 nM.

In turn, `Oc1cc(Nc2ccnc3cc(-c4cccc(CN5CCCCC5)c4)ccc23)c(F)cc1Cl` yielded a half-maximal inhibitory concentration (IC50) of 100 nM.

`Cc1cccc2[nH]c(C3CCN(CC4CCN(C(=O)/C=C/c5ccc(Cl)c(Cl)c5)CC4)CC3)nc12` gave an IC50 of 480 nM.

In turn, `Cc1cccc2[nH]c(-c3ccc(-c4ccc(NC(=O)c5cncn5C)cc4)s3)nc12` returned an IC50 of 670 nM.

Compound `CN=C(N)c1ccc(NC(=O)c2ccc(C(=O)Nc3ccc(C(N)=NC)cc3)cc2)cc1` showed an IC50 of 50 nM.

As for `CC(=O)c1ccc2c(c1)CCN(CCC1CCC(NC(=O)c3cc4ccccc4[nH]3)CC1)CC2` (stereo not given), the IC50 was found to be 980 nM.

Consider `CCOc1ccc(-c2nonc2NC(=O)c2cccs2)cc1OCC`, for which the IC50 turned out to be 760 nM.

Compound `N#Cc1ccc2c(c1)CCN(CCC1CCC(NC(=O)Nc3ccncc3)CC1)C2` (stereo not given) registered an IC50 of 1130 nM.

As for `O=C(NCC1CC1)C1CCN(C(c2ccccc2)c2nc3ccccc3s2)CC1` (stereo not given), the half-maximal inhibitory concentration (IC50) was determined as 1020 nM.

In turn, `COc1ccc2nccc([C@@H](O)CN3CCC(NC(=O)/C=C/c4ccc(Cl)c(C(F)(F)F)c4)CC3)c2c1` displayed an IC50 of 290 nM.

For the compound `O=[N+]([O-])c1ccc(Oc2c(Cl)cc(S(=O)(=O)N3CCC(CN4CCC(c5c[nH]c6ccccc56)CC4)CC3)cc2Cl)c(Cl)c1`, the half-maximal inhibitory concentration (IC50) amounted to 1000 nM.

As for `Cc1[nH]c2ccccc2c1C1CCN(CCCCNC(=O)c2ccc(-c3ccc(C#N)cc3)cc2)CC1`, the IC50 came out at 700 nM.

`O=C(CSc1nc2ccccc2c(=O)n1CC1CCCO1)Nc1cc(C(F)(F)F)ccc1Cl` (stereo not given) returned an IC50 of 230 nM.

On to `c1cncc(-c2cc(N3CCCCC3)nc(-c3ccncc3)n2)c1`, for which the IC50 worked out at 770 nM.

The compound `O=C1c2ccc([N+](=O)[O-])cc2C(=O)N1c1ccc2[nH]ncc2c1` showed an IC50 of 1150 nM.

The compound `COc1ccccc1N1CCN(C(C(=O)NCc2ccc3c(c2)OCO3)c2ccc3c(c2)OCCCO3)CC1` (stereo not given) yielded an IC50 of 1120 nM.

The compound `Cc1cc(-c2ccc3occ(CCN)c3c2)cnc1N` had an IC50 of 880 nM.

As to `CCNC(=O)Nc1cccc(-c2ccc(-c3nc4c(C)cccc4[nH]3)s2)c1`, the half-inhibitory concentration (IC50) was found to be 770 nM.

`COc1cccc(OCC2CCCN(CCCCNC(=O)c3ccc(NC(=O)c4ccc(Cl)cc4)cc3)C2)c1` (stereo not given): the half-maximal inhibitory concentration (IC50) worked out at 750 nM.

Turning to `CCCCN(CCCC)CCCN(CCCN(CCCC)CCCC)c1cc(C)nc(Nc2ccc(Br)cc2)n1`, the IC50 turned out to be 130 nM.

Regarding `CCCCN(Cc1cccc(C(F)(F)F)c1Cl)c1ccc(C(O)(C(F)(F)F)C(F)(F)F)cc1`, the half-maximal inhibitory concentration (IC50) was 960 nM.

`CC1(C)CCC(C)(C)c2c1ccc(C1CCN(CCCCNC(=O)c3ccc(-c4ccc(C#N)cc4)cc3)CC1)c2OCC(N)=O` returned a half-inhibitory concentration (IC50) of 420 nM.

In the case of `CC(C)CCN1CCC(Oc2ccc(NC(=O)c3ccccc3)cc2Cl)CC1`, the IC50 was 1300 nM.

Take `COc1ccc(NC(=O)Nc2cccc(-c3cccc(-c4nc5ccc(F)cc5[nH]4)c3)c2)cc1`: the IC50 turned out to be 170 nM.

Compound `Cc1ccc(-n2cc(CNCC3CCN(CCO)CC3)c(-c3ccc(F)cc3)n2)cc1` returned an IC50 of 2000 nM.

In turn, `Oc1ccc(CN2Cc3ccccc3OC3(CCN(Cc4c[nH]c5cnccc45)CC3)C2)cc1` showed an IC50 of 1170 nM.

As for `CCCNC(=O)Nc1cc2cc(-c3cccc(CN4CCCCC4)c3)ccc2n2c(C)nnc12`, the IC50 came out at 1110 nM.

`CC(=O)Nc1ccc(COc2ccc(Nc3ccnc4cc(-c5ccccn5)ccc34)cc2)cc1` showed an IC50 of 200 nM.

Take `COc1ccccc1C1CCN(C2CCC(NC(=O)/C=C/c3cc(C(F)(F)F)ccc3F)CC2)CC1` (stereo not given): the IC50 was found to be 870 nM.

In turn, `CCc1ccccc1NC(=O)CN1CCN(c2ncnc3scc(-c4ccc(F)cc4)c23)CC1` had an IC50 of 700 nM.

Consider `CC(C)(CNCc1ccc(Cl)c(Cl)c1)c1nc(-c2ccc(Cl)c(O)c2)c(-c2ccncc2)[nH]1`, for which the IC50 turned out to be 760 nM.

For the compound `Cc1ccc(-c2ccc3c(c2)C=C(C(=O)NCC2CCN(CC4CCN(C(=O)/C=C/c5ccc(Cl)c(Cl)c5)CC4)CC2)CCC3)cc1`, the IC50 stood at 780 nM.

As to `O=C(Nc1ccc2c(c1)CCN2C1CCN(Cc2csc3ccccc23)C1)c1ccco1` (stereo not given), the IC50 amounted to 320 nM.

Consider `Cc1csc2nc(-c3ccccn3)nc(Nc3ccc4ncsc4c3)c12`, for which the IC50 turned out to be 1110 nM.

In turn, `CN1CCN(CCCN(Cc2cccc(-c3cccc(CNC4CCCC4)c3)c2)C(=O)CCC2CCCC2)CC1` came in with an IC50 of 680 nM.

As to `O=S(=O)(NCCN1CCCC1)c1ccc(-c2ccc(CNCc3ccc(F)cc3)cc2)s1`, the IC50 came out at 840 nM.

For `COc1ccc(-c2ccc(CN(C)C3CCC(NC(=O)c4cc5ccccc5[nH]4)CC3)cc2)cn1` (stereo not given), the IC50 came out at 870 nM.

Consider `COc1ccc(OC)c(C(O)CNC(C)C)c1` (stereo not given), for which the IC50 is 60 nM.

`COc1cc(NCCCNC(=O)c2cc3c(Cl)cc(Cl)cc3[nH]2)nc2ccccc12` had an IC50 of 140 nM.

In turn, `O=C(/C=C/c1ccc(Cl)c(Cl)c1)NCCCCCN1CC[C@H](NC(=O)c2ccc3c(c2)OCO3)C1` showed an IC50 of 940 nM.

`O=C(CCn1c2ccccc2c2ccccc21)NN=Cc1ccco1` yielded an IC50 of 590 nM.

Regarding `COc1ccc(C(=O)CCC(=O)N(Cc2ccc(-c3ccc(CNCCc4ccc(S(C)(=O)=O)cc4)cn3)cc2)C2CCN(Cc3ccccc3)CC2)cc1F`, the concentration for half-maximal inhibition (IC50) is 440 nM.

As to `CCc1c(CCNCCCCCNCCc2ccc(OC)c(OC)c2CC)ccc(OC)c1OC`, the IC50 worked out at 1110 nM.

For the compound `Cc1cc(N[C@@H](Cc2ccccc2)C(=O)NCCc2ccccc2)nc(NCCOc2ccccc2)n1`, the 50% inhibitory concentration (IC50) worked out at 1000 nM.

`CC(C)N1CCCN(C(=O)C2CCN(c3ccc(C(=O)N4CCCC4)cn3)CC2)CC1` registered an IC50 of 1060 nM.

`COc1ccccc1Nc1nc(C)cc(NCc2ccc(-n3ccnc3)cc2)n1` registered an IC50 of 1050 nM.

`CC(C)NCc1ccc(-c2ccc(NC(=O)c3cccc(C#N)c3)cc2)cc1` had an IC50 of 650 nM.

The compound `CC(C)CCN(Cc1cncn1Cc1cccc(Cl)c1)C(=O)c1cncc(-c2ccccc2)c1` gave an IC50 of 760 nM.

`COc1ccc(NC(=O)NCC2CCCN(CCCCCNC(=O)/C=C/c3ccc(Cl)c(Cl)c3)C2)c(OC)c1` (stereo not given): the IC50 is 860 nM.
